Measurements from patent US20050009840A1 (SUGEN, INC., priority 2003, published 2005).
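Further: Cell-free ELISA with plate-bound poly(Glu:Tyr 4:1) phosphorylated by GST-fused Met kinase domain plus ATP and Mn2+, phosphotyrosine detected by anti-phosphotyrosine antibody with HRP and ABTS read-out.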

The molecules below were run against T1, Met kinase domain (GST fusion protein) (Homo sapiens, UniProt P08581) (assay: Met transphosphorylation assay (ELISA, poly(glu-tyr) substrate)). Conditions: Table 2; read-out: Met IC50.
T1 construct: Purified GST fusion protein containing the Met kinase domain
T1 sequence (P08581 1078-1345 limits assumed): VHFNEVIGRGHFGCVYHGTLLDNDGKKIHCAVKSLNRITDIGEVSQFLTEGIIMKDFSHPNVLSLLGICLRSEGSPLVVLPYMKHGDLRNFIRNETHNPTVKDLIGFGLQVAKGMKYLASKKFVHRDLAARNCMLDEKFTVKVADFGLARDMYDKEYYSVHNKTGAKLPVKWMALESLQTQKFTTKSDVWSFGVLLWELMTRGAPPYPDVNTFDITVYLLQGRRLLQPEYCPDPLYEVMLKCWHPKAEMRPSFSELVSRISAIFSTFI
Type: biochemical
`CN(C)[C@H]1CCN(C(=O)c2ccc(-c3cnc(N)c(OCc4ccccc4C(F)(F)F)c3)cc2)C1` [Example I-185, {4-[6-Amino-5-(2-trifluoromethyl-benzyloxy)-pyridin-3-yl]-phenyl}-[(3S)-3-dimethylamino-pyrrolidin-1-yl]-methanone] showed an IC50 of 1.39 µM.
Molecule `Nc1ncc(-c2ccc(C(=O)N3CC[C@H](N)C3)cc2)cc1OCc1ccccc1C(F)(F)F` [Example I-186, [(3S)-3-Amino-pyrrolidin-1-yl]-{4-[6-amino-5-(2-trifluoromethyl-benzyloxy)-pyridin-3-yl]-phenyl}-methanone] has an IC50 of 0.79 µM.
`CN1CCN(C(=O)c2ccc(-c3cnc(N)c(OCc4ccccc4C(F)(F)F)c3)cc2)CC1` [Example I-188, {4-[6-Amino-5-(2-trifluoromethyl-benzyloxy)-pyridin-3-yl]-phenyl}-(4-methyl-piperazin-1-yl)-methanone] was tested, and the IC50 was 1.64 µM.
Molecule `Nc1ncc(-c2ccc(C(=O)NCCN3CCOCC3)cc2)cc1OCc1ccccc1C(F)(F)F` [Example I-191, 4-[6-Amino-5-(2-trifluoromethyl-benzyloxy)-pyridin-3-yl]-N-(2-morpholin-4-yl-ethyl)-benzamide] has an IC50 of 5.2 µM.
For `Nc1ncc(-c2ccc(C(=O)NCCCN3CCOCC3)cc2)cc1OCc1ccccc1C(F)(F)F` [Example I-192, 4-[6-Amino-5-(2-trifluoromethyl-benzyloxy)-pyridin-3-yl]-N-(3-morpholin-4-yl-propyl)-benzamide], the IC50 was 3.8 µM.
Molecule `CN1CCN(C(=O)c2ccc(-c3cnc(N)c(OCc4ccc(C(C)(C)C)cc4)c3)cc2)CC1` [Example I-197, {4-[6-Amino-5-(4-tert-butyl-benzyloxy)-pyridin-3-yl]-phenyl}-(4-methyl-piperazin-1-yl)-methanone] has an IC50 of 3.8 µM.
`CC(=O)N1CCN(C(=O)c2ccc(-c3cnc(N)c(OCc4ccc(C(C)(C)C)cc4)c3)cc2)CC1` [Example I-198, 1-(4-{4-[6-Amino-5-(4-tert-butyl-benzyloxy)-pyridin-3-yl]-benzoyl}-piperazin-1-yl)-ethanone] gave an IC50 of 3 µM.
For `CC(C)(C)c1ccc(COc2cc(-c3ccc(C(=O)NCCN4CCOCC4)cc3)cnc2N)cc1` [Example I-200, 4-[6-Amino-5-(4-tert-butyl-benzyloxy)-pyridin-3-yl]-N-(2-morpholin-4-yl-ethyl)-benzamide], the IC50 was 6.88 µM.
Molecule `CN(C)[C@H]1CCN(C(=O)c2ccc(-c3cnc(N)c(OCc4ccc(F)cc4Cl)c3)cc2)C1` [Example I-205, {4-[6-Amino-5-(2-chloro-4-fluoro-benzyloxy)-pyridin-3-yl]-phenyl}-[(3S)-3-dimethylamino-pyrrolidin-1-yl]-methanone] has an IC50 of 61 µM.
`Nc1ncc(-c2ccc(C(=O)N3CC[C@H](N)C3)cc2)cc1OCc1ccc(F)cc1Cl` [Example I-206, {4-(6-Amino-5-(2-chloro-4-fluoro-benzyloxy)-pyridin-3-yl]-phenyl}-[(3S)-3-amino-pyrrolidin-1-yl]-methanone] gave an IC50 of 1.83 µM.
`CN1CCN(C(=O)c2ccc(-c3cnc(N)c(OCc4ccc(F)cc4Cl)c3)cc2)CC1` [Example I-207, {4-(6-Amino-5-(2-chloro-4-fluoro-benzyloxy)-pyridin-3-yl]-phenyl}-(4-methyl-piperazin-1-yl)-methanone] gave an IC50 of 5 µM.
`CC(=O)N1CCN(C(=O)c2ccc(-c3cnc(N)c(OCc4ccc(F)cc4Cl)c3)cc2)CC1` [Example I-208, 1-(4-{4-(6-Amino-5-(2-chloro-4-fluoro-benzyloxy)-pyridin-3-yl]-benzoyl}-piperazin-1-yl)-ethanone] was tested, and the IC50 was 5.3 µM.

Same assay, conditions: read-out: Met IC50
`CN(C)[C@H]1CCN(C(=O)c2ccc(-c3cnc(N)c(OCc4c(F)cccc4Cl)c3)cc2)C1` [Example I-144, {4-[6-Amino-5-(2-chloro-6-fluoro-benzyloxy)-pyridin-3-yl]-phenyl}-[(3S)-3-dimethylamino-pyrrolidin-1-yl]-methanone] gave an IC50 of 1.7 µM.
`Nc1ncc(-c2ccc(C(=O)N3CC[C@H](N)C3)cc2)cc1OCc1c(F)cccc1Cl` [Example I-145, {4-[6-Amino-5-(2-chloro-6-fluoro-benzyloxy)-pyridin-3-yl]-phenyl}-[(3S)-3-amino-pyrrolidin-1-yl]-methanone] gave an IC50 of 0.63 µM.
`CN1CCN(C(=O)c2ccc(-c3cnc(N)c(OCc4c(F)cccc4Cl)c3)cc2)CC1` [Example I-146, {4-[6-Amino-5-(2-chloro-6-fluoro-benzyloxy)-pyridin-3-yl]-phenyl}-(4-methyl-piperazin-1-yl)-methanone] showed an IC50 of 1.94 µM.
`CC(=O)N1CCN(C(=O)c2ccc(-c3cnc(N)c(OCc4c(F)cccc4Cl)c3)cc2)CC1` [Example I-147, 1-(4-{4-(6-Amino-5-(2-chloro-6-fluoro-benzyloxy)-pyridin-3-yl]-benzoyl}-piperazin-1-yl)-ethanone] gave an IC50 of 1.45 µM.
With `Nc1ncc(-c2ccc(C(=O)NCCN3CCOCC3)cc2)cc1OCc1c(F)cccc1Cl` [Example I-148, 4-[6-Amino-5-(2-chloro-6-fluoro-benzyloxy)-pyridin-3-yl]-N-(2-morpholin-4-yl-ethyl)-benzamide] the IC50 was 6.4 µM.
Work on `Nc1ncc(-c2ccc(C(=O)NCCCN3CCOCC3)cc2)cc1OCc1c(F)cccc1Cl` [Example I-149, 4-[6-Amino-5-(2-chloro-6-fluoro-benzyloxy)-pyridin-3-yl]-N-(3-morpholin-4-yl-propyl)-benzamide] yielded an IC50 of 5.6 µM.
Work on `CN(C)[C@H]1CCN(C(=O)c2ccc(-c3cnc(N)c(OCc4ccccc4Cl)c3)cc2)C1` [Example I-153, {4-[6-Amino-5-(2-chloro-benzyloxy)-pyridin-3-yl]-phenyl}-[(3S)-3-dimethylamino-pyrrolidin-1-yl]-methanone] yielded an IC50 of 12.7 µM.
`Nc1ncc(-c2ccc(C(=O)N3CC[C@H](N)C3)cc2)cc1OCc1ccccc1Cl` [Example I-154, {4-[6-Amino-5-(2-chloro-benzyloxy)-pyridin-3-yl]-phenyl}-[(3S)-3-amino-pyrrolidin-1-yl]-methanone] gave an IC50 of 1.44 µM.
In the case of `CN1CCN(C(=O)c2ccc(-c3cnc(N)c(OCc4ccccc4Cl)c3)cc2)CC1` [Example I-156, {4-[6-Amino-5-(2-chloro-benzyloxy)-pyridin-3-yl]-phenyl}-(4-methyl-piperazin-1-yl)-methanone], the IC50 is reported as 2.1 µM.
`CC(=O)N1CCN(C(=O)c2ccc(-c3cnc(N)c(OCc4ccccc4Cl)c3)cc2)CC1` [Example I-157, 1-(4-{4-[6-Amino-5-(2-chloro-benzyloxy)-pyridin-3-yl]-benzoyl}-piperazin-1-yl)-ethanone] was tested, and the IC50 was 3.8 µM.
For `Nc1ncc(-c2ccc(C(=O)NCCN3CCOCC3)cc2)cc1OCc1ccccc1Cl` [Example I-158, 4-[6-Amino-5-(2-chloro-benzyloxy)-pyridin-3-yl]-N-(2-morpholin-4-yl-ethyl)-benzamide], the IC50 was 8.9 µM.
In the case of `Nc1ncc(-c2ccc(C(=O)NCCCN3CCOCC3)cc2)cc1OCc1ccccc1Cl` [Example I-159, 4-[6-Amino-5-(2-chloro-benzyloxy)-pyridin-3-yl]-N-(3-morpholin-4-yl-propyl)-benzamide], the IC50 is reported as 4.5 µM.
With `CN(C)[C@H]1CCN(C(=O)c2ccc(-c3cnc(N)c(OCc4ccccc4C#N)c3)cc2)C1` [Example I-163, 2-{2-Amino-5-[4-((3S)-3-dimethylamino-pyrrolidine-1-carbonyl)-phenyl]-pyridin-3-yloxymethyl}-benzonitrile] the IC50 was > 20 µM.
`N#Cc1ccccc1COc1cc(-c2ccc(C(=O)N3CC[C@H](N)C3)cc2)cnc1N` [Example I-164] was tested, and the IC50 was 2.05 µM.
For `CN1CCN(C(=O)c2ccc(-c3cnc(N)c(OCc4ccccc4C#N)c3)cc2)CC1` [Example I-166, 2-{2-Amino-5-[4-(4-methyl-piperazine-1-carbonyl)-phenyl]-pyridin-3-yloxymethyl}-benzonitrile], the IC50 was 3.2 µM.
Molecule `CC(=O)N1CCN(C(=O)c2ccc(-c3cnc(N)c(OCc4ccccc4C#N)c3)cc2)CC1` [Example I-167, 2-{5-[4-(4-Acetyl-piperazine-1-carbonyl)-phenyl]-2-amino-pyridin-3-yloxymethyl}-benzonitrile] has an IC50 of 5.7 µM.
`N#Cc1ccccc1COc1cc(-c2ccc(C(=O)NCCN3CCOCC3)cc2)cnc1N` [Example I-169, 4-[6-Amino-5-(2-cyano-benzyloxy)-pyridin-3-yl]-N-(2-morpholin-4-yl-ethyl)-benzamide] was tested, and the IC50 was 8.6 µM.
`N#Cc1ccccc1COc1cc(-c2ccc(C(=O)NCCCN3CCOCC3)cc2)cnc1N` [Example I-170, 4-[6-Amino-5-(2-cyano-benzyloxy)-pyridin-3-yl]-N-(3-morpholin-4-yl-propyl)-benzamide] gave an IC50 of 17.3 µM.
`CN(C)[C@H]1CCN(C(=O)c2ccc(-c3cnc(N)c(OCc4ccc(Cl)cc4Cl)c3)cc2)C1` [Example I-174, {4-[6-Amino-5-(2,4-dichloro-benzyloxy)-pyridin-3-yl]-phenyl}-[(3S)-3-dimethylamino-pyrrolidin-1-yl]-methanone] was tested, and the IC50 was 0.8 µM.
`Nc1ncc(-c2ccc(C(=O)N3CC[C@H](N)C3)cc2)cc1OCc1ccc(Cl)cc1Cl` [Example I-175, {4-[6-Amino-5-(2,4-dichloro-benzyloxy)-pyridin-3-yl]-phenyl}-[(3S)-3-amino-pyrrolidin-1-yl]-methanone] showed an IC50 of 1.2 µM.
Molecule `CN1CCN(C(=O)c2ccc(-c3cnc(N)c(OCc4ccc(Cl)cc4Cl)c3)cc2)CC1` [Example I-177, {4-[6-Amino-5-(2,4-dichloro-benzyloxy)-pyridin-3-yl]-phenyl}-(4-methyl-piperazin-1-yl)-methanone] has an IC50 of 0.79 µM.
For `CC(=O)N1CCN(C(=O)c2ccc(-c3cnc(N)c(OCc4ccc(Cl)cc4Cl)c3)cc2)CC1` [Example I-178, 1-(4-{4-[6-Amino-5-(2,4-dichloro-benzyloxy)-pyridin-3-yl]-benzoyl}-piperazin-1-yl)-ethanone], the IC50 was 1.67 µM.
`Nc1ncc(-c2ccc(C(=O)NCCN3CCOCC3)cc2)cc1OCc1ccc(Cl)cc1Cl` [Example I-180, 4-[6-Amino-5-(2,4-dichloro-benzyloxy)-pyridin-3-yl]-N-(2-morpholin-4-yl-ethyl)-benzamide] was tested, and the IC50 was 3.8 µM.
Work on `Nc1ncc(-c2ccc(C(=O)NCCCN3CCOCC3)cc2)cc1OCc1ccc(Cl)cc1Cl` [Example I-181, 4-[6-Amino-5-(2,4-dichloro-benzyloxy)-pyridin-3-yl]-N-(3-morpholin-4-yl-propyl)-benzamide] yielded an IC50 of 2 µM.
